Results: paper PMC10342075, “Blunting Neuroinflammation by Targeting the Immunoproteasome with Novel Amide Derivatives” (International Journal of Molecular Sciences, 2023)

Assays:
[1] = molecular target: T1, β5i subunit of 20S immunoproteasome (LMP7) (Homo sapiens, UniProt P28062); experiment: fluorogenic Suc-Leu-Leu-Val-Tyr-AMC hydrolysis (chymotrypsin-like activity) with purified human […] immunoproteasome; format: biochemical
T1 construct: gene PSMB8; human 20S immunoproteasome isolated from human spleen; with 20S immunoproteasome (other subunits)
T1 sequence (P28062 73-276): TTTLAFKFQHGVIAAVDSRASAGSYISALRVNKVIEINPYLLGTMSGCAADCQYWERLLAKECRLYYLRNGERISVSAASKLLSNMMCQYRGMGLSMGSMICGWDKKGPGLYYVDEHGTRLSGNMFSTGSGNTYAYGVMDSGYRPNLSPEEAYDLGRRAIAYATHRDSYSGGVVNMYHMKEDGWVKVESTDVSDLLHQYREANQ

[2] = molecular target: T2, β5c subunit of 20S proteasome (Homo sapiens, UniProt P28074); experiment: fluorogenic Suc-Leu-Leu-Val-Tyr-AMC hydrolysis (chymotrypsin-like activity) with purified human […] proteasome; format: biochemical
T2 construct: gene PSMB5; human 20S proteasome isolated from human erythrocytes; with 20S proteasome (other subunits)
T2 sequence (P28074 60-263): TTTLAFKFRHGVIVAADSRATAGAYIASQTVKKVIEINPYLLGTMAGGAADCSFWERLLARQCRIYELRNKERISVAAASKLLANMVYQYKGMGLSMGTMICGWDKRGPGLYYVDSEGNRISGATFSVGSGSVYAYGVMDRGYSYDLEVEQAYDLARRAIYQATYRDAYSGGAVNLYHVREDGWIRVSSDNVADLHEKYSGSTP

Structure (SMILES)	IC50 [1]	IC50 [2]
O=C(NCCc1ccccc1)[C@H](CCc1ccccc1)n1ccccc1=O [KJ3]	7.61 ± 0.76 µM	
O=C(NCc1ccccc1)[C@H](Cc1ccccc1)n1ccccc1=O [KJ9]	16.5 ± 0.35 µM	6.9 ± 0.18 µM
